Laboratory results published in US9067983B2, “Anti-inflammatory antibodies and uses therefor” (DecImmune Therapeutics, Inc., priority 2009, dated 2015).
No end group written: not given here.

Tested on: RAG-1-/- mice
Assay: human IgM-mediated myocardial injury in RAG-1-/- mice (1 h LAD occlusion, 24 h reperfusion)
Type: in vivo, mouse
Details: 400 μg hIgM i.v. with 200 μg N2 peptide or 150 μg F(ab')2, 15 min prior to occlusion; FIG. 4
Experimental: Prior to occlusion (15 min), 400 μg of pooled individual hIgM from 10 donors was injected i.v. into the mice with either saline or 200 μg of N2 peptide. Myocardial sections were stained with Evans blue and TTC. Myocardial infarct size is expressed as a percentage infarct of the area at risk (AAR) of the left ventricle. (B and C) RAG-1−/− mice were treated as in (A) and analyzed for hIgM deposition (B) or serum troponin-I levels (C). (D) RAG-1−/− mice were subjected to 1 h LAD occlusion and 24 h reperfusion. Prior to occlusion (15 min), 400 μg hIgM was injected i.v. into the mice with either saline or 150 μg of anti-N2 F(ab′)2 antibody (21G6) and myocardial sections were analyzed as in (A). (E) RAG-1−/− mice were treated as in (D) and analyzed for hIgM deposition. In all panels, statistical significance was evaluated by Student's t test.

“Ac-LMKNMDPLNDNV (listed as Mus sp.) [N2 peptide, self-peptide, amino acids 592-603 of Mouse NMHC-IIB]” was tested, and the “human IgM-mediated injury (infarct size, hIgM deposition, serum troponin-I)” value was “block human IgM-mediated injury”.
